Test results published in patent publication US20020115724A1, “Methods and agents for inhibiting protein aging” (priority 1985, published 2002).

How the values were obtained:
[1] = test system: bovine serum albumin; experiment: Formation of fluorescent advanced glycosylation end products in albumin incubated with glucose; format: biochemical; conditions: 200 mM agent, 6 mg/mL BSA, 200 mM glucose, 37° C., two-week incubation, vs control
Experimental: To measure the ability of certain of the agents of the present invention to inhibit the production of advanced glycosylated end products in vitro, albumin and glucose were incubated together for two weeks in the presence of several test agents. Samples were taken at regular intervals for analysis. Advanced glycosylation end products were measured as appearance of fluorescent compounds, and early glycosylation products were measured by incorporation of radiolabeled glucose into albumin. Reaction conditions were as follows. […]
After the incubation periods, samples were treated as follows. After dialysis to remove all unbound glucose, the amount of protein present was measured with a standard dye-binding assay. The amount of glucose which became bound to the albumin, a measure of early glycosylation products, was determined by precipitating albumin with trichloroacetic acid and measuring the radioactivity of the bound glucose using scintillation counting.
The results of this experiment are expressed graphically in FIG. 1. For each sample, incorporation of radiolabeled glucose is indicated by the solid portion of the bar, and fluorescence is indicated in the open portion of the bar. All values are expressed as per milligram of albumin. […]

[2] = test system: gelatin (collagen); experiment: Protein trapping: radioiodinated albumin bound to gelatin (collagen) agarose beads with glucose-6-phosphate; format: biochemical; conditions: agent 200 mN, 400 mN glucose-6-phosphate, two weeks, 37° C.
Source text: To more precisely measure the effect of the agents on the inhibition of protein crosslinking, an assay system was devised to measure the extent of in vitro binding of a soluble protein to an insoluble protein. This assay system mimics the events which occur in tissues in which serum proteins become bound to proteins in extravascular matrix and which lead to accumulation of protein and narrowing of vessel lumina in several other tissues. These events in vivo give rise to kidney disease and atherosclerotic disease, and lead to the pathologies associated with diabetes and aging.
To measure protein trapping (i.e., binding or accumulation), gelatin (collagen) was coupled to activated agarose beads (Affigel 10, Bio-Red Laboratories) by routine methods. After coupling, all remaining active sites on the beads were quenched by reaction with glycine ethyl ester.
The beads were incubated for two weeks with bovine serum albumin and 400 mN glucose-6-phosphate, a more reactive form of glucose which forms early glycosylation products with proteins more rapidly than does glucose. […] The bovine serum albumin was radioiodinated so that the amount which became bound to the beads could be measured. […]
After a two-week incubation of the reaction mixtures at 37° C., the beads were washed extensively with chaotropic agents and the covalently bound radioactivity was determined. […]

[3] = test system: rats; conditions: subcutaneously, rats; cited from earlier work
[4] = test system: mice; conditions: subcutaneously; cited from earlier work
[5] = test system: demineralized bone matrix particles; experiment: Bone differentiation of AGE-modified demineralized bone matrix implanted in rats; format: in vivo, rat; conditions: matrix incubated with glycolaldehyde
Experimental: In order to assess the possible role of hyperglycemia-induced matrix modifications in this process, demineralized bone matrix particles from 35 week old normal Long-Evans rats were prepared. Matrix is incubated in phosphate buffered saline alone (PBS), PBS containing various sugar precursors of AGE (PBS−G), and PBS with sugars plus the AGE-inhibitor aminoguanidine (PBS−G+AG). After incubation, the matrix is washed and implanted subcutaneously in normal rats. Twelve days after implantation, ^45CaCl2 is injected to determine implant mineralization, and alkaline phosphatase activity is measured to assess osteoblast function. Duplicate specimens are fixed, embedded and stained for histologic evaluation.

With `NCCCC[C@H](N)C(=O)O` [Lysine, lysine] the “formation of fluorescent compounds (advanced glycosylation end products)” value [1] was “appeared to cause an increase in fluorescent compound formation” and the “amount of protein trapping (radiolabeled albumin bound to collagen beads)” value [2] was “reduced the amount of protein trapping to an extent similar to that of aminoguanidine”.

For `N=C(N)NN` [aminoguanidine base, aminoguanidine], the LD50 [3] is listed as 1258 mg/kg and the LD50 [4] is listed as 963 mg/kg.

For `O=CCO` [glycolaldehyde, reference compound], the “matrix AGE content (by specific fluorescence), increase” value [5] was “over twofold” and the “inhibition of bone differentiation (45CaCl2 uptake, alk phos, histology)” value ([5]; implanted subcutaneously, 12 days) was “more than 90%”.
